The text below walks through data of US20100319073A1, “GDE Compositions and Methods” (The Johns Hopkins University, priority 2005, published 2010).

The test relates to clone 45.1 (GDE2). Kind of test: Reverse Northern blot of ventral spinal cord explants grown with or without retinol (differential subtraction screen). The test is classed as cell-based, chick. The settings on record: explants exposed to retinol, compared with GAPDH. How it is done:
Ventral neural explants were dissected from brachial level HH St17 chick embryos and cultured as described previously for 18 hours (1). The screen was designed to maximize isolation of genes responsive to motor neuron-derived retinoids however genes responsive to paraxial mesoderm-derived retinoids would also have been included. RNA from 100 explants was isolated using Trizol (GIBCO-BRL). cDNAs were generated and amplified using the Marathon cDNA PCR Amplification kit (Stratagene) and the subtraction procedure carried out using the Stratagene PCR Select Suppression kit. Reverse Northern blot analysis was performed as described in the latter kit.
Spinal motor neuron generation in the chick requires the integration of three different extrinsic signals: sonic hedgehog, fibroblast growth factors, and retinoic acid (RA) (2, 3). All three signaling pathways have been implicated in initial dorsal-ventral patterning of progenitor domains in the spinal cord (FIG. 1A). However, RA signaling is also necessary for the induction of Oligodendrocyte transcription factor 2 (Olig2) in progenitors, and their subsequent differentiation into postmitotic motor neurons (FIG. 1A) (2). […]

For the compound `CC1=C(/C=C/C(C)=C/C=C/C(C)=C/CO)C(C)(C)CCC1` [retinol], the “increase in expression of clone 45.1” value is listed as “approximately 50 fold”.
